{"source": "PubChem BioAssay AID1963980", "about": "(Molecular Pharmacology Branch, DTP, NCI, 2024)", "system": "475296-252-R-J1-PDC spheroid viability", "assay": "Anticancer human tumor 475296-252-R-J1-PDC patient-derived rectal carcinoma cell line growth inhibition [PI3K]", "settings": "spheroids with HUVEC and MSC; for IC50: curve of first compound; for viability, T/C: stronger effect = lower value", "outline": "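Agents were dosed from a top concentration near clinical Cmax (otherwise 10 microM) in half-log decrements, alone or combined with PI3K inhibitors. The spheroids contain tumor cells plus endothelial (HUVEC) and MSC stroma; viability is measured.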"}
{"compound": "CNC(=O)c1ccc(N2C(=S)N(c3ccc(C#N)c(C(F)(F)F)c3)C(=O)C2(C)C)cc1F", "note": "+ CC(Nc1ncnc2nc[nH]c12)c1cc2cccc(Cl)c2c(=O)n1-c1ccccc1;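 also: spheroids exposed to agents for seven days before readout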", "values": [{"measurement": "IC50", "setting": "second compound 0.0316 µM", "value": "> 10", "unit": "µM"}, {"measurement": "IC50", "setting": "second compound 0.1 µM", "value": "> 10", "unit": "µM"}, {"measurement": "IC50", "setting": "second compound 0.316 µM", "value": "> 10", "unit": "µM"}, {"measurement": "IC50", "setting": "second compound 1 µM", "value": "> 10", "unit": "µM"}, {"measurement": "IC50", "setting": "second compound 3.16 µM", "value": "> 10", "unit": "µM"}, {"measurement": "IC50", "setting": "second compound 10 µM", "value": "> 10", "unit": "µM"}, {"measurement": "viability, T/C", "setting": "second compound 0.0316 µM, first compound 0.0316 µM", "value": 90.9, "unit": "%"}, {"measurement": "viability, T/C", "setting": "second compound 0.0316 µM, first compound 0.1 µM", "value": 92.1, "unit": "%"}, {"measurement": "viability, T/C", "setting": "second compound 0.0316 µM, first compound 0.316 µM", "value": 107, "unit": "%"}, {"measurement": "viability, T/C", "setting": "second compound 0.0316 µM, first compound 1 µM", "value": 92.6, "unit": "%"}, {"measurement": "viability, T/C", "setting": "second compound 0.0316 µM, first compound 3.16 µM", "value": 101, "unit": "%"}, {"measurement": "viability, T/C", "setting": "second compound 0.0316 µM, first compound 10 µM", "value": 85.7, "unit": "%"}, {"measurement": "viability, T/C", "setting": "second compound 0.1 µM, first compound 0.0316 µM", "value": 97.6, "unit": "%"}, {"measurement": "viability, T/C", "setting": "second compound 0.1 µM, first compound 0.1 µM", "value": 99.6, "unit": "%"}, {"measurement": "viability, T/C", "setting": "second compound 0.1 µM, first compound 0.316 µM", "value": 93.4, "unit": "%"}, {"measurement": "viability, T/C", "setting": "second compound 0.1 µM, first compound 1 µM", "value": 109, "unit": "%"}, {"measurement": "viability, T/C", "setting": "second compound 0.1 µM, first compound 3.16 µM", "value": 109, "unit": "%"}, {"measurement": "viability, T/C", "setting": "second compound 0.1 µM, first compound 10 µM", "value": 106, "unit": "%"}, {"measurement": "viability, T/C", "setting": "second compound 0.316 µM, first compound 0.0316 µM", "value": 94.9, "unit": "%"}, {"measurement": "viability, T/C", "setting": "second compound 0.316 µM, first compound 0.1 µM", "value": 104, "unit": "%"}, {"measurement": "viability, T/C", "setting": "second compound 0.316 µM, first compound 0.316 µM", "value": 106, "unit": "%"}, {"measurement": "viability, T/C", "setting": "second compound 0.316 µM, first compound 1 µM", "value": 98.4, "unit": "%"}, {"measurement": "viability, T/C", "setting": "second compound 0.316 µM, first compound 3.16 µM", "value": 107, "unit": "%"}, {"measurement": "viability, T/C", "setting": "second compound 0.316 µM, first compound 10 µM", "value": 96.2, "unit": "%"}, {"measurement": "viability, T/C", "setting": "second compound 1 µM, first compound 0.0316 µM", "value": 97, "unit": "%"}, {"measurement": "viability, T/C", "setting": "second compound 1 µM, first compound 0.1 µM", "value": 92.1, "unit": "%"}, {"measurement": "viability, T/C", "setting": "second compound 1 µM, first compound 0.316 µM", "value": 102, "unit": "%"}, {"measurement": "viability, T/C", "setting": "second compound 1 µM, first compound 1 µM", "value": 92.4, "unit": "%"}, {"measurement": "viability, T/C", "setting": "second compound 1 µM, first compound 3.16 µM", "value": 99.2, "unit": "%"}, {"measurement": "viability, T/C", "setting": "second compound 1 µM, first compound 10 µM", "value": 99.7, "unit": "%"}, {"measurement": "viability, T/C", "setting": "second compound 3.16 µM, first compound 0.0316 µM", "value": 89.4, "unit": "%"}, {"measurement": "viability, T/C", "setting": "second compound 3.16 µM, first compound 0.1 µM", "value": 114, "unit": "%"}, {"measurement": "viability, T/C", "setting": "second compound 3.16 µM, first compound 0.316 µM", "value": 94, "unit": "%"}, {"measurement": "viability, T/C", "setting": "second compound 3.16 µM, first compound 1 µM", "value": 103, "unit": "%"}, {"measurement": "viability, T/C", "setting": "second compound 3.16 µM, first compound 3.16 µM", "value": 101, "unit": "%"}, {"measurement": "viability, T/C", "setting": "second compound 3.16 µM, first compound 10 µM", "value": 93.2, "unit": "%"}, {"measurement": "viability, T/C", "setting": "second compound 10 µM, first compound 0.0316 µM", "value": 103, "unit": "%"}, {"measurement": "viability, T/C", "setting": "second compound 10 µM, first compound 0.1 µM", "value": 92, "unit": "%"}, {"measurement": "viability, T/C", "setting": "second compound 10 µM, first compound 0.316 µM", "value": 93, "unit": "%"}, {"measurement": "viability, T/C", "setting": "second compound 10 µM, first compound 1 µM", "value": 96.6, "unit": "%"}, {"measurement": "viability, T/C", "setting": "second compound 10 µM, first compound 3.16 µM", "value": 107, "unit": "%"}, {"measurement": "viability, T/C", "setting": "second compound 10 µM, first compound 10 µM", "value": 109, "unit": "%"}]}
{"compound": "Cn1cnc2c(F)c(Nc3ccc(Br)cc3Cl)c(C(=O)NOCCO)cc21", "note": "+ CC(Nc1ncnc2nc[nH]c12)c1cc2cccc(Cl)c2c(=O)n1-c1ccccc1", "values": [{"measurement": "IC50", "setting": "second compound 0.0316 µM", "value": "> 3", "unit": "µM"}, {"measurement": "IC50", "setting": "second compound 0.1 µM", "value": "> 3", "unit": "µM"}, {"measurement": "IC50", "setting": "second compound 0.316 µM", "value": "> 3", "unit": "µM"}, {"measurement": "IC50", "setting": "second compound 1 µM", "value": 2.91, "unit": "µM"}, {"measurement": "IC50", "setting": "second compound 3.16 µM", "value": 2.12, "unit": "µM"}, {"measurement": "IC50", "setting": "second compound 10 µM", "value": 1.21, "unit": "µM"}, {"measurement": "viability, T/C", "setting": "second compound 0.0316 µM, first compound 0.00949 µM", "value": 84.4, "unit": "%"}, {"measurement": "viability, T/C", "setting": "second compound 0.0316 µM, first compound 0.03 µM", "value": 84.9, "unit": "%"}, {"measurement": "viability, T/C", "setting": "second compound 0.0316 µM, first compound 0.0949 µM", "value": 81.6, "unit": "%"}, {"measurement": "viability, T/C", "setting": "second compound 0.0316 µM, first compound 0.3 µM", "value": 70.5, "unit": "%"}, {"measurement": "viability, T/C", "setting": "second compound 0.0316 µM, first compound 0.949 µM", "value": 63.1, "unit": "%"}, {"measurement": "viability, T/C", "setting": "second compound 0.0316 µM, first compound 3 µM", "value": 53.9, "unit": "%"}, {"measurement": "viability, T/C", "setting": "second compound 0.1 µM, first compound 0.00949 µM", "value": 95.8, "unit": "%"}, {"measurement": "viability, T/C", "setting": "second compound 0.1 µM, first compound 0.03 µM", "value": 85.5, "unit": "%"}, {"measurement": "viability, T/C", "setting": "second compound 0.1 µM, first compound 0.0949 µM", "value": 93.3, "unit": "%"}, {"measurement": "viability, T/C", "setting": "second compound 0.1 µM, first compound 0.3 µM", "value": 73.5, "unit": "%"}, {"measurement": "viability, T/C", "setting": "second compound 0.1 µM, first compound 0.949 µM", "value": 66.6, "unit": "%"}, {"measurement": "viability, T/C", "setting": "second compound 0.1 µM, first compound 3 µM", "value": 55.7, "unit": "%"}, {"measurement": "viability, T/C", "setting": "second compound 0.316 µM, first compound 0.00949 µM", "value": 90.7, "unit": "%"}, {"measurement": "viability, T/C", "setting": "second compound 0.316 µM, first compound 0.03 µM", "value": 92.9, "unit": "%"}, {"measurement": "viability, T/C", "setting": "second compound 0.316 µM, first compound 0.0949 µM", "value": 86.5, "unit": "%"}, {"measurement": "viability, T/C", "setting": "second compound 0.316 µM, first compound 0.3 µM", "value": 74.8, "unit": "%"}, {"measurement": "viability, T/C", "setting": "second compound 0.316 µM, first compound 0.949 µM", "value": 76.3, "unit": "%"}, {"measurement": "viability, T/C", "setting": "second compound 0.316 µM, first compound 3 µM", "value": 51.5, "unit": "%"}, {"measurement": "viability, T/C", "setting": "second compound 1 µM, first compound 0.00949 µM", "value": 95.7, "unit": "%"}, {"measurement": "viability, T/C", "setting": "second compound 1 µM, first compound 0.03 µM", "value": 95.7, "unit": "%"}, {"measurement": "viability, T/C", "setting": "second compound 1 µM, first compound 0.0949 µM", "value": 81.4, "unit": "%"}, {"measurement": "viability, T/C", "setting": "second compound 1 µM, first compound 0.3 µM", "value": 68.2, "unit": "%"}, {"measurement": "viability, T/C", "setting": "second compound 1 µM, first compound 0.949 µM", "value": 67.3, "unit": "%"}, {"measurement": "viability, T/C", "setting": "second compound 1 µM, first compound 3 µM", "value": 48.1, "unit": "%"}, {"measurement": "viability, T/C", "setting": "second compound 3.16 µM, first compound 0.00949 µM", "value": 94.2, "unit": "%"}, {"measurement": "viability, T/C", "setting": "second compound 3.16 µM, first compound 0.03 µM", "value": 92.9, "unit": "%"}, {"measurement": "viability, T/C", "setting": "second compound 3.16 µM, first compound 0.0949 µM", "value": 76, "unit": "%"}, {"measurement": "viability, T/C", "setting": "second compound 3.16 µM, first compound 0.3 µM", "value": 68.3, "unit": "%"}, {"measurement": "viability, T/C", "setting": "second compound 3.16 µM, first compound 0.949 µM", "value": 62.5, "unit": "%"}, {"measurement": "viability, T/C", "setting": "second compound 3.16 µM, first compound 3 µM", "value": 44.9, "unit": "%"}, {"measurement": "viability, T/C", "setting": "second compound 10 µM, first compound 0.00949 µM", "value": 100, "unit": "%"}, {"measurement": "viability, T/C", "setting": "second compound 10 µM, first compound 0.03 µM", "value": 95, "unit": "%"}, {"measurement": "viability, T/C", "setting": "second compound 10 µM, first compound 0.0949 µM", "value": 73.2, "unit": "%"}, {"measurement": "viability, T/C", "setting": "second compound 10 µM, first compound 0.3 µM", "value": 59.9, "unit": "%"}, {"measurement": "viability, T/C", "setting": "second compound 10 µM, first compound 0.949 µM", "value": 59.6, "unit": "%"}, {"measurement": "viability, T/C", "setting": "second compound 10 µM, first compound 3 µM", "value": 38.3, "unit": "%"}]}
